Reference: patent US20140262319A1, “ENVIRONMENTALLY FRIENDLY PERMANENT QUATERNARIES OF POLYAMINES AND THEIR USE AS CLAY STABILIZERS AND METHODS FOR MAKING AND USING SAME” (CLEARWATER INTERNATIONAL, LLC, priority 2013, published 2014)

Test system: Fathead Minnow (pimephales promelas)
Test: Acute toxicity survival test
Assay type: in vivo
Settings: Flathead Minnows
Method: As a consequence, the “definitive” test gave a more precise LC50 value. LC50 was determined using a log-normal transformation coupled with linear regression between the bracketing no observed effect concentration (NOEC) and lowest observed effect concentration (LOEC). Both the range finding and definitive tests were run on Example 4 and Example 5. Only the ranging finding test was run for TMAC and Example 3.

Compound	toxicity to minnows compared with TMAC
OCC[N+](CCO)(CCO)Cc1ccccc1.[Cl-] [Example 4]	much less toxic than TMAC
CCOS(=O)(=O)[O-].CC[N+](CCO)(CCO)CCO [Example 5]	much less toxic than TMAC
